This note sets out measurements from ChEMBL document CHEMBL6092215, “A Prostate-Specific Membrane Antigen-Targeting Small Molecule-Drug Conjugate Strategy to Overcome the Hematological Toxicity of Olaparib” (J Med Chem, 2024).

Data set [1] can be described thus: Toxicity in male BALB/c nude mouse xenografted with human 22Rv1 cells assessed as decrease in hemoglobin at 100 mg/kg administered via gavage by routine blood test. Format: organism-based. As to conditions: in vivo, po. On the technique in general: A xenograft is tissue or cells of one species grown in another, often human tumour cells in immunodeficient mice.

The test system of data set [2] is CWR22R. In words: Antiproliferative activity against human 22Rv1 cells assessed as reduction in cell viability at 125 uM in presence of DUPA. The format is functional, cell-based.
Data set [3] can be described thus: Antiproliferative activity against PSMA negative human RWPE-1 cells assessed as effect on cell viability incubated for 72 hrs by MTT assay. Format: toxicity, cell-based. As to conditions: RWPE-1 cells (PSMA negative). A general note: Tetrazolium dyes change colour on reduction, which living cells bring about.
The nature of data set [4]: Subacute toxicity in male ICR mouse assessed as decrease in WBC level at 100 mg/kg, po administered via gavage for 30 days by blood routine test relative to control. More on the design: scale not given: the % may be the effect or the level left. To be noted: in vivo, 720 h, time 30 day. Format: organism-based.
Data set [5] in a line: Subacute toxicity in male ICR mouse assessed as decrease in lymphocytes level at 100 mg/kg, po administered via gavage for 30 days by blood routine test relative to control. Set-up: scale not given: the % may be the effect or the level left. Format: organism-based. To be noted: in vivo, 720 h, time 30 day.
A short description of data set [6]: Drug uptake in PSMA positive human 22Rv1 cells at 10 uM measured after 1 to 6 hrs by LC-MS/MS analysis. The format is ADME, cell-based. As to conditions: cwr22r, time 1-6 hrs.
Data set [7] in a line: Toxicity in male BALB/c nude mouse xenografted with human 22Rv1 cells assessed as decrease in body weight at 100 mg/kg administered via gavage. Format: organism-based. As to conditions: in vivo, po.
The nature of data set [8]: Toxicity in male BALB/c nude mouse xenografted with human 22Rv1 cells assessed as decrease in granulocytes at 100 mg/kg administered via gavage by routine blood test. As to conditions: in vivo, po. The format is organism-based.
In data set [9] the test system is CWR22R. The data set can be described thus: Antitumor activity against human 22Rv1 cells xenografted in male BALB/c nude mouse assessed as tumor growth inhibition at 100 mg/kg administered via gavage relative to control. As to conditions: 22Rv1, po, read-out: TGI. The format is functional.
The subject of a further data set is LNCaP. The data set can be described thus: Antiproliferative activity against human LNCaP cells with high PSMA expression assessed as effect on cell viability incubated for 72 hrs by MTT assay. The format is functional, cell-based.
Data set [10] deals with CWR22R. The data set can be described thus: Induction of DNA damage in human 22Rv1 cells assessed as increase in number of gamma-H2AX foci at 100 uM incubated for 12 hrs by DAPI staining based immunofluorescence analysis. Format: functional, cell-based.
A short description of data set [11]: Subacute toxicity in male ICR mouse assessed as decrease in hemoglobin level at 100 mg/kg, po administered via gavage for 30 days by blood routine test relative to control. More on the design: scale not given: the % may be the effect or the level left. To be noted: in vivo, 720 h, time 30 day. Format: organism-based.
Data set [12] in a line: Toxicity in male BALB/c nude mouse xenografted with human 22Rv1 cells assessed as decrease in lymphocytes at 100 mg/kg administered via gavage by routine blood test. The format is organism-based. As to conditions: in vivo, po.
The subject of data set [13] is CWR22R. The data set can be described thus: Antiproliferative activity against human 22Rv1 cells with high PSMA expression assessed as effect on cell viability incubated for 72 hrs by MTT assay. As to conditions: 22Rv1, 72 h. Format: functional, cell-based.
Data set [14] can be described thus: Drug uptake in PSMA negative human PC-3 cells at 10 uM measured after 1 to 6 hrs by LC-MS/MS analysis. The format is ADME, cell-based. As to conditions: pc-3, 10 µM, time 1-6 hrs.
Data set [15] is described as follows: Subacute toxicity in male ICR mouse assessed as decrease in red blood cells at 100 mg/kg, po administered via gavage for 30 days by blood routine test relative to control. Format: organism-based. More on the design: scale not given: the % may be the effect or the level left. To be noted: in vivo, 720 h, time 30 day.
Data set [16] is described as follows: Toxicity in male BALB/c nude mouse xenografted with human 22Rv1 cells assessed as decrease in red blood cells at 100 mg/kg administered via gavage by routine blood test. As to conditions: in vivo, po. The format is organism-based.
Data set [17] in a line: Subacute toxicity in male ICR mouse assessed as decrease in hematocrit level at 100 mg/kg, po administered via gavage for 30 days by blood routine test relative to control. The format is organism-based. More on the design: scale not given: the % may be the effect or the level left. To be noted: in vivo, 720 h, time 30 day.
Data set [18] is described as follows: Subacute toxicity in male ICR mouse assessed as decrease in body weight at 100 mg/kg, po administered via gavage for 30 days relative to control. Format: organism-based. More on the design: scale not given: the % may be the effect or the level left. As to conditions: in vivo, 720 h, time 30 day.
Data set [19] deals with CWR22R. The data set can be described thus: Antitumor activity against human 22Rv1 cells xenografted in male BALB/c nude mouse at 100 mg/kg administered via gavage. The format is functional, organism-based.
Another data set has as its system PC-3. In words: Antiproliferative activity against PSMA negative human PC-3 cells assessed as effect on cell viability incubated for 72 hrs by MTT assay. Format: functional.
A short description of data set [20]: Subacute toxicity in male ICR mouse assessed as decrease in neutrophil level at 100 mg/kg, po administered via gavage for 30 days by blood routine test relative to control. As to conditions: in vivo, 720 h, time 30 day. Format: organism-based. Set-up: scale not given: the % may be the effect or the level left.

By CC50 is commonly meant the concentration that lowers cell viability or growth by half. What is called IC50 is the point on the concentration scale where inhibition reaches its midpoint.

Each structure is given as a SMILES string. Calls of active or inactive are those of the source. The calls are words filed in the database; no cut-off is given here.

In the case of `O=C(c1cc(Cc2n[nH]c(=O)c3ccccc23)ccc1F)N1CCN(C(=O)C2CC2)CC1` [OLAPARIB], the Activity result is listed as “Toxic” in [1]; “Active; Drug Mode Of Action Appears To Be Independent Of Binding To Psma Receptor” in the data set on CWR22R [2]; 28.12% in [4]; 32.71% in data set [5]; “Non-toxic” in data set [7]; “Toxic” in data set [8]. Moreover, the Activity in data set [11] is 11.69%; in data set [12] it was “Toxic”; in data set [15] it was 15.73%; in data set [16], “Toxic”; in data set [17], 12.82%; in data set [18], 8%. Moreover, in [20], the Activity amounted to 10.4%. Moreover, the half-maximal cytotoxic concentration (CC50) at 72 h in [3] was 85.5 µM. The Drug uptake result in data set [6] and in [14] was “Active” throughout. In the data set on CWR22R [9], the inhibition in vivo at 100 mg/kg is 61%. Besides, the values for the IC50 in the data set on LNCaP and with CWR22R [13] were 56.5 µM and 61.6 µM, respectively. Moreover, the outcome in the data set with CWR22R [10] and with CWR22R [19] was Active. Moreover, in the data set with PC-3, the CC50 worked out at 91.5 µM.
